Experimental data as given in the kinase profiling compilation of Christmann-Franck et al. (2016).

target: TXK (human) (UniProt P42681); test: KINOMEscan competition binding; settings: compound 10.0 µM

Row | kinase still bound, per cent of control [%] | SMILES
1 | 6.9 | COc1cc(N2CCC(N3CCN(C)CC3)CC2)ccc1Nc1ncc(Cl)c(Nc2ccccc2S(=O)(=O)C(C)C)n1
2 | 12 | CCN1CCN(Cc2ccc(NC(=O)c3ccc(C)c(Oc4ccnc5[nH]ccc45)c3)cc2C(F)(F)F)CC1

Row | SMILES | kinase still bound, per cent of control [%]
3 | CCOc1cc(N2CCC(N3CCCCC3)CC2)ccc1Nc1nc(Nc2ccccc2S(=O)(=O)C(C)C)c2cn[nH]c2n1 | 100

system: FLT3 (human), P36888 [K663Q]; test: KINOMEscan competition binding; settings: compound 10.0 µM

Row | SMILES | kinase still bound, per cent of control [%]
4 | CCN1CCN(Cc2ccc(NC(=O)c3ccc(C)c(/C=C/c4cnc(Nc5cc(N6CCNCC6)nc(C)n5)cn4)c3)cc2C(F)(F)F)CC1 | 0.15
5 | CCOc1cc(N2CCC(N3CCCCC3)CC2)ccc1Nc1nc(Nc2ccccc2S(=O)(=O)C(C)C)c2cn[nH]c2n1 | 100
6 | CCN1CCN(Cc2ccc(NC(=O)c3ccc(C)c(Oc4ccnc5[nH]ccc45)c3)cc2C(F)(F)F)CC1 | 0

target: IKBKB (human) (UniProt O14920); test: KINOMEscan competition binding; settings: compound 10.0 µM
Sequence (O14920 whole entry, looked up): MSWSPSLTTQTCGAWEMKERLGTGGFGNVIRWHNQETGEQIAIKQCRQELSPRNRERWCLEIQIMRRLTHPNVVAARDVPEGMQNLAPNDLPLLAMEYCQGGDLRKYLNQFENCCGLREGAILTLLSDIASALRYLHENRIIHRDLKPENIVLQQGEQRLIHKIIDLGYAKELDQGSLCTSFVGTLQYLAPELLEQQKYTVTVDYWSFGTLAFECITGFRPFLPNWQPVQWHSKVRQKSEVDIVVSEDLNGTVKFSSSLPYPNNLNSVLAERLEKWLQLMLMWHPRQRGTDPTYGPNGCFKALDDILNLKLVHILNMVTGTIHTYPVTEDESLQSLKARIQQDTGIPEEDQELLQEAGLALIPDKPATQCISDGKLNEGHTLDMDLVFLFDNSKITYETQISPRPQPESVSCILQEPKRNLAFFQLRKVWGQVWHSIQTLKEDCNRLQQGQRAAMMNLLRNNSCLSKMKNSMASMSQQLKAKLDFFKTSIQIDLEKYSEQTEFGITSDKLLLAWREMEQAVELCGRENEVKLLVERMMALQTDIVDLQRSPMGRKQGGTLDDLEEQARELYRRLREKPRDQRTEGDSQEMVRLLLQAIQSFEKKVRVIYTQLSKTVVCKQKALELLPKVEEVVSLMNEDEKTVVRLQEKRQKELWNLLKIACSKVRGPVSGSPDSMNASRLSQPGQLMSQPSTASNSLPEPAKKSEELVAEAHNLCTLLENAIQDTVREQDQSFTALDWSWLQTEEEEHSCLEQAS

Row | SMILES | kinase still bound, per cent of control [%]
7 | CCN1CCN(Cc2ccc(NC(=O)c3ccc(C)c(/C=C/c4cnc(Nc5cc(N6CCNCC6)nc(C)n5)cn4)c3)cc2C(F)(F)F)CC1 | 0.95
8 | COc1cc(N2CCC(N3CCN(C)CC3)CC2)ccc1Nc1ncc(Cl)c(Nc2ccccc2S(=O)(=O)C(C)C)n1 | 40
9 | CCOc1cc(N2CCC(N3CCCCC3)CC2)ccc1Nc1nc(Nc2ccccc2S(=O)(=O)C(C)C)c2cn[nH]c2n1 | 100
10 | CCN1CCN(Cc2ccc(NC(=O)c3ccc(C)c(Oc4ccnc5[nH]ccc45)c3)cc2C(F)(F)F)CC1 | 24

target: ROS1 (human) (UniProt P08922); test: KINOMEscan competition binding; settings: compound 10.0 µM

Row | SMILES | kinase still bound, per cent of control [%]
11 | CCN1CCN(Cc2ccc(NC(=O)c3ccc(C)c(/C=C/c4cnc(Nc5cc(N6CCNCC6)nc(C)n5)cn4)c3)cc2C(F)(F)F)CC1 | 100
12 | COc1cc(N2CCC(N3CCN(C)CC3)CC2)ccc1Nc1ncc(Cl)c(Nc2ccccc2S(=O)(=O)C(C)C)n1 | 0.45
13 | CCOc1cc(N2CCC(N3CCCCC3)CC2)ccc1Nc1nc(Nc2ccccc2S(=O)(=O)C(C)C)c2cn[nH]c2n1 | 5.8

target: TNK1 (human) (UniProt Q13470); test: KINOMEscan competition binding; settings: compound 10.0 µM
Sequence (Q13470 whole entry, looked up): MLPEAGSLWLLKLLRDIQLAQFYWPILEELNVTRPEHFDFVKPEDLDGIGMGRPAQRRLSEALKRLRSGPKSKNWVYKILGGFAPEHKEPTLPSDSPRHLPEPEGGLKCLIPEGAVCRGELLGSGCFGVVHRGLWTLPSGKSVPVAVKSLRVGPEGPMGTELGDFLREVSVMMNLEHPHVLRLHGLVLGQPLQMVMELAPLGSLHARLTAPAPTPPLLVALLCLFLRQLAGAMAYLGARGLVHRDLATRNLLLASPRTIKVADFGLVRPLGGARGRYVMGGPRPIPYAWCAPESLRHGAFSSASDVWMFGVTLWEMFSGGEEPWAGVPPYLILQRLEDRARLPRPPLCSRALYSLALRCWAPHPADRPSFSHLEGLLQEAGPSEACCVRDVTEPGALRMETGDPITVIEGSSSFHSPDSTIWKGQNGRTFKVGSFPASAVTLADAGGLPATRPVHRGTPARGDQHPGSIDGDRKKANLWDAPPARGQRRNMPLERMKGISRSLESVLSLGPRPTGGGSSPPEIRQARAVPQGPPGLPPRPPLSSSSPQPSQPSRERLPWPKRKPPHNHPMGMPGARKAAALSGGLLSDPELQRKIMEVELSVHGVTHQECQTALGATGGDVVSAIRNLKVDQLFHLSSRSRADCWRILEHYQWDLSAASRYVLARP

Row | SMILES | kinase still bound, per cent of control [%]
14 | CCN1CCN(Cc2ccc(NC(=O)c3ccc(C)c(/C=C/c4cnc(Nc5cc(N6CCNCC6)nc(C)n5)cn4)c3)cc2C(F)(F)F)CC1 | 13
15 | COc1cc(N2CCC(N3CCN(C)CC3)CC2)ccc1Nc1ncc(Cl)c(Nc2ccccc2S(=O)(=O)C(C)C)n1 | 0.45
16 | CCOc1cc(N2CCC(N3CCCCC3)CC2)ccc1Nc1nc(Nc2ccccc2S(=O)(=O)C(C)C)c2cn[nH]c2n1 | 2.4
17 | CCN1CCN(Cc2ccc(NC(=O)c3ccc(C)c(Oc4ccnc5[nH]ccc45)c3)cc2C(F)(F)F)CC1 | 0.35

target: MAPK6 (human) (UniProt Q16659); test: KINOMEscan competition binding; settings: compound 10.0 µM
Sequence (Q16659 whole entry, looked up): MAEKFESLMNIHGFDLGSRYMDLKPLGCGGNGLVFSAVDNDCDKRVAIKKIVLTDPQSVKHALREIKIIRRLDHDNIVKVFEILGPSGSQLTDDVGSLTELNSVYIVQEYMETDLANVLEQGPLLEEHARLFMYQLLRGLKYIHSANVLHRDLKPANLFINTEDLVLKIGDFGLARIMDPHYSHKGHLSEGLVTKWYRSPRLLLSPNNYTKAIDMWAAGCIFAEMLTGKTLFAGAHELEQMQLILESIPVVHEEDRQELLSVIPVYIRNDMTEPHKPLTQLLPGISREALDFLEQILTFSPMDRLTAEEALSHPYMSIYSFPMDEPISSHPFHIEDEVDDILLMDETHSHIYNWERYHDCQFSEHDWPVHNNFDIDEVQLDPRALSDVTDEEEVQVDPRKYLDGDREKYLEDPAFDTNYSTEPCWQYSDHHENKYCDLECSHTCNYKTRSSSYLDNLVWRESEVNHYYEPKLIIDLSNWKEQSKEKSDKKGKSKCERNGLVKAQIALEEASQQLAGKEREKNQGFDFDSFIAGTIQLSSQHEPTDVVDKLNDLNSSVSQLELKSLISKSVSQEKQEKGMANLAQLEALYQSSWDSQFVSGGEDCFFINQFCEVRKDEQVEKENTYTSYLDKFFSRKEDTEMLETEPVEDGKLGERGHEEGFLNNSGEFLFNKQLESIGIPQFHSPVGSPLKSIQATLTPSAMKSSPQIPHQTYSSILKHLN

Row | SMILES | kinase still bound, per cent of control [%]
18 | CCN1CCN(Cc2ccc(NC(=O)c3ccc(C)c(/C=C/c4cnc(Nc5cc(N6CCNCC6)nc(C)n5)cn4)c3)cc2C(F)(F)F)CC1 | 100
19 | COc1cc(N2CCC(N3CCN(C)CC3)CC2)ccc1Nc1ncc(Cl)c(Nc2ccccc2S(=O)(=O)C(C)C)n1 | 40
20 | CCOc1cc(N2CCC(N3CCCCC3)CC2)ccc1Nc1nc(Nc2ccccc2S(=O)(=O)C(C)C)c2cn[nH]c2n1 | 94

target: PHKG2 (human) (UniProt P15735); test: KINOMEscan competition binding; settings: compound 10.0 µM
Sequence (P15735 whole entry, looked up): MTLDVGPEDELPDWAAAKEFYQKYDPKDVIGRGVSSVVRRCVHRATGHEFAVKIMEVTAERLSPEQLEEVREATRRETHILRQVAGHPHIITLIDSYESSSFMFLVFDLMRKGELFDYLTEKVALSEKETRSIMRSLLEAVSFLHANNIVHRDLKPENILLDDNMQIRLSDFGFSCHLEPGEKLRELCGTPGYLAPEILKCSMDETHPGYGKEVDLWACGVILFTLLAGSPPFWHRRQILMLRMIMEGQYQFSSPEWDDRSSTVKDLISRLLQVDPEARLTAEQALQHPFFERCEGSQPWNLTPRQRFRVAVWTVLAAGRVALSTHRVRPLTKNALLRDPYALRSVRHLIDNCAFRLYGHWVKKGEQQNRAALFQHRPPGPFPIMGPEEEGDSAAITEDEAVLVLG

Row | SMILES | kinase still bound, per cent of control [%]
21 | CCN1CCN(Cc2ccc(NC(=O)c3ccc(C)c(/C=C/c4cnc(Nc5cc(N6CCNCC6)nc(C)n5)cn4)c3)cc2C(F)(F)F)CC1 | 100
22 | COc1cc(N2CCC(N3CCN(C)CC3)CC2)ccc1Nc1ncc(Cl)c(Nc2ccccc2S(=O)(=O)C(C)C)n1 | 0
23 | CCOc1cc(N2CCC(N3CCCCC3)CC2)ccc1Nc1nc(Nc2ccccc2S(=O)(=O)C(C)C)c2cn[nH]c2n1 | 21

target: PRKD2 (human) (UniProt Q9BZL6); test: KINOMEscan competition binding; settings: compound 10.0 µM
Sequence (Q9BZL6 whole entry, looked up): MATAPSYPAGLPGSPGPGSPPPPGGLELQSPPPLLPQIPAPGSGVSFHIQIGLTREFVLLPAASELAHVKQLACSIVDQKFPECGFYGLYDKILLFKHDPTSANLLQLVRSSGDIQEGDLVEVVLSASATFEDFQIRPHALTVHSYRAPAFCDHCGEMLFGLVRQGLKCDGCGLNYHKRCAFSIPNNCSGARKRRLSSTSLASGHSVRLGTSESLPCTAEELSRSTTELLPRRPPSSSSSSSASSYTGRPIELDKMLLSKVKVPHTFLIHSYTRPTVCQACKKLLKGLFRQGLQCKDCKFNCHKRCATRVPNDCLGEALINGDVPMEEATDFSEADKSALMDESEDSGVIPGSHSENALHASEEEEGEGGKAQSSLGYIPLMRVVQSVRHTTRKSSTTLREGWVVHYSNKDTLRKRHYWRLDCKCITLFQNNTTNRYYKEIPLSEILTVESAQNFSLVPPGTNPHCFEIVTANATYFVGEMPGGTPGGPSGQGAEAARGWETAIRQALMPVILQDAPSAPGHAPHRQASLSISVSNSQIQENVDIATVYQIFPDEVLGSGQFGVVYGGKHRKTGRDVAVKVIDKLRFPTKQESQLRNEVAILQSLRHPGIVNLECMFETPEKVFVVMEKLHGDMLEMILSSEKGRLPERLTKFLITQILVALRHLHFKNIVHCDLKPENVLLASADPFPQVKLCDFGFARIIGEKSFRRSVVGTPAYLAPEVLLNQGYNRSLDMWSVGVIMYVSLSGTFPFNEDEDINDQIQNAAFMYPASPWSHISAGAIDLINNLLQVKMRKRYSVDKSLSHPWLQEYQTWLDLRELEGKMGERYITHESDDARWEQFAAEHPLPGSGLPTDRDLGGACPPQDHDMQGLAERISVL

Row | SMILES | kinase still bound, per cent of control [%]
24 | CCN1CCN(Cc2ccc(NC(=O)c3ccc(C)c(/C=C/c4cnc(Nc5cc(N6CCNCC6)nc(C)n5)cn4)c3)cc2C(F)(F)F)CC1 | 76
25 | COc1cc(N2CCC(N3CCN(C)CC3)CC2)ccc1Nc1ncc(Cl)c(Nc2ccccc2S(=O)(=O)C(C)C)n1 | 0.05
26 | CCOc1cc(N2CCC(N3CCCCC3)CC2)ccc1Nc1nc(Nc2ccccc2S(=O)(=O)C(C)C)c2cn[nH]c2n1 | 96

target: PRKAA2 (human) (UniProt P54646); test: KINOMEscan competition binding; settings: compound 10.0 µM

Row | SMILES | kinase still bound, per cent of control [%]
27 | CCN1CCN(Cc2ccc(NC(=O)c3ccc(C)c(/C=C/c4cnc(Nc5cc(N6CCNCC6)nc(C)n5)cn4)c3)cc2C(F)(F)F)CC1 | 14
28 | COc1cc(N2CCC(N3CCN(C)CC3)CC2)ccc1Nc1ncc(Cl)c(Nc2ccccc2S(=O)(=O)C(C)C)n1 | 0.15
29 | CCOc1cc(N2CCC(N3CCCCC3)CC2)ccc1Nc1nc(Nc2ccccc2S(=O)(=O)C(C)C)c2cn[nH]c2n1 | 100

target: PRKCQ (human) (UniProt Q04759); test: KINOMEscan competition binding; settings: compound 10.0 µM
Sequence (Q04759 whole entry, looked up): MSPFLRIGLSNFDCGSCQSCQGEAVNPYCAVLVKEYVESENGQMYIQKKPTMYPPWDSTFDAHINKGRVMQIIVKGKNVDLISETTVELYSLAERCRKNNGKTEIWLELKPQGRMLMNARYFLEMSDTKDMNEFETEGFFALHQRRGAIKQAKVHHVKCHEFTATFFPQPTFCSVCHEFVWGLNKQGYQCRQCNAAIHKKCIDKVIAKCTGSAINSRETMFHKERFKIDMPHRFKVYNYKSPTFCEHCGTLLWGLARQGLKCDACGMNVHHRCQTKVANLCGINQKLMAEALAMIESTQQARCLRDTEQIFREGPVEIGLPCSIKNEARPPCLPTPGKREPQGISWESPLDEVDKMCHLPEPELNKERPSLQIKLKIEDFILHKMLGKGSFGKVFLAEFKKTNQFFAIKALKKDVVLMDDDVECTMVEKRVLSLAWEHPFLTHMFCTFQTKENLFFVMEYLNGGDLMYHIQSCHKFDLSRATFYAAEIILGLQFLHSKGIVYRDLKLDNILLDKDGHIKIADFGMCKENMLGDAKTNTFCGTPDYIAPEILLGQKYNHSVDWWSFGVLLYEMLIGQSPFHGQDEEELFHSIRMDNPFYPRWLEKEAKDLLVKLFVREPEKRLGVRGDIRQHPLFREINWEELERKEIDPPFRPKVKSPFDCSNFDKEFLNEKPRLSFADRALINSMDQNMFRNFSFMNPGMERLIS

Row | SMILES | kinase still bound, per cent of control [%]
30 | CCN1CCN(Cc2ccc(NC(=O)c3ccc(C)c(/C=C/c4cnc(Nc5cc(N6CCNCC6)nc(C)n5)cn4)c3)cc2C(F)(F)F)CC1 | 81
31 | COc1cc(N2CCC(N3CCN(C)CC3)CC2)ccc1Nc1ncc(Cl)c(Nc2ccccc2S(=O)(=O)C(C)C)n1 | 13
32 | CCOc1cc(N2CCC(N3CCCCC3)CC2)ccc1Nc1nc(Nc2ccccc2S(=O)(=O)C(C)C)c2cn[nH]c2n1 | 100

target: ACVR2A (human) (UniProt P27037); test: KINOMEscan competition binding; settings: compound 10.0 µM
Sequence (P27037 whole entry, looked up): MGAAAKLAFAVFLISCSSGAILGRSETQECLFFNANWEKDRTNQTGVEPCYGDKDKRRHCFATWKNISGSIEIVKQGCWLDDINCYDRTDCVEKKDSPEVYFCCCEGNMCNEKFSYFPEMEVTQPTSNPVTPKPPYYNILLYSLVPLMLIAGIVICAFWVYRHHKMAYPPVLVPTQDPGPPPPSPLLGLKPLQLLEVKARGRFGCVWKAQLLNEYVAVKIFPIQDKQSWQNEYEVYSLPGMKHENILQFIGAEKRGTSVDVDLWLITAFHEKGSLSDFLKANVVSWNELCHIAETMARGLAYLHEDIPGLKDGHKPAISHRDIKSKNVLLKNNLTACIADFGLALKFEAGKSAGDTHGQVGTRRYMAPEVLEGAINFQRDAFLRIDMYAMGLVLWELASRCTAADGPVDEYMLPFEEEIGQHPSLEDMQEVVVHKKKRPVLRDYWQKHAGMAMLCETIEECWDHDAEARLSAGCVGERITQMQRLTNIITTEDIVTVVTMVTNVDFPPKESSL

Row | SMILES | kinase still bound, per cent of control [%]
33 | CCN1CCN(Cc2ccc(NC(=O)c3ccc(C)c(/C=C/c4cnc(Nc5cc(N6CCNCC6)nc(C)n5)cn4)c3)cc2C(F)(F)F)CC1 | 100
34 | COc1cc(N2CCC(N3CCN(C)CC3)CC2)ccc1Nc1ncc(Cl)c(Nc2ccccc2S(=O)(=O)C(C)C)n1 | 12
35 | CCOc1cc(N2CCC(N3CCCCC3)CC2)ccc1Nc1nc(Nc2ccccc2S(=O)(=O)C(C)C)c2cn[nH]c2n1 | 100
